The record followed here is PMC5540879 (Molecular cancer research : MCR, 2017).

In general, Km refers to the substrate concentration at which the rate is half of its maximum.

This assay deals with T1, OATP1B3 (Homo sapiens, UniProt Q9NPD5).
T1 sequence (Q9NPD5 1-702): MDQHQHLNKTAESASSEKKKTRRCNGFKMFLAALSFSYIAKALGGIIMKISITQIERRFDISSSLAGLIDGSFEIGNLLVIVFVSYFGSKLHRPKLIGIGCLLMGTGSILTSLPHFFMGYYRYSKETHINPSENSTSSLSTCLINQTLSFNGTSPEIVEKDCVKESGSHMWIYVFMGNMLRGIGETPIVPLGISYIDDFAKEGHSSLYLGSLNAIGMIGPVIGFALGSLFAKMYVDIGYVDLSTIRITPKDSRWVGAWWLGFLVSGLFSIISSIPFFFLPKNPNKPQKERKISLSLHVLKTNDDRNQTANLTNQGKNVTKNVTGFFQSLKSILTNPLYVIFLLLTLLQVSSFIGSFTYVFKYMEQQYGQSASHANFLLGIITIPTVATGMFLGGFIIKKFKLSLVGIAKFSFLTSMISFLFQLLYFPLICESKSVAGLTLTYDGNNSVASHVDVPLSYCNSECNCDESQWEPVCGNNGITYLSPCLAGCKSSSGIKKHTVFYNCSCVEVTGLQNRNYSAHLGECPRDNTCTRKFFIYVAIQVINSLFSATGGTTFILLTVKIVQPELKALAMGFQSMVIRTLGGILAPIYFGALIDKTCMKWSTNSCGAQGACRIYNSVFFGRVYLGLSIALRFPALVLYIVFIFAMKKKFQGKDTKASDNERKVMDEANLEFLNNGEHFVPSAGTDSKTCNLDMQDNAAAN
Nature of the assay: radiolabeled uptake kinetics. In kind it is cell-based. The conditions noted are these: oatp1b3-cho cells.
Consider `C[C@]12CCC(=O)C=C1CC[C@@H]1[C@@H]2CC[C@]2(C)C(=O)CC[C@@H]12` [androstenedione, 4-androstene-3,17-dione], for which the Km was 31.7 ± 9.5 µM.

For `C[C@]12CCC(=O)C[C@@H]1CC[C@@H]1[C@@H]2CC[C@]2(C)[C@@H](O)CC[C@@H]12` [DHT], the Km was 30.4 ± 9.3 µM.

Turning to `C[C@]12CC[C@H]3[C@@H](CCC4=CC(=O)CC[C@@]43C)[C@@H]1CC[C@@H]2O` [testosterone], the Km worked out at 23.2 ± 3.9 µM.
